Values quoted from earlier work, collected in patent US10045978B2 (AB SCIENCE, priority 2010, dated 2018).
Where two headings read alike, the source gives them in different places.

How the values were obtained:
mastocytosis patients = settings: in vivo; cited from earlier work
[1] = system: patients with WHO-defined systemic mastocytosis (SM); settings: cited from earlier work
patients = settings: of patients; cited from earlier work
[2] = system: indolent mastocytosis patients; settings: cited from earlier work
[3] = system: mast cells carrying the D816V c-Kit mutation; settings: in vitro; cited from earlier work
[4] = entire evaluable study population (N=108)
[5] = patients with indolent SM (N=22)

Compound	cases with reduced mast cell tumor burden (mastocytosis patients)	major response rate [1, 4]	overall response rate [1, 4]	overall response rate [1, 5]	grade 4 neutropaenia (patients)	patients reporting symptomatic improvements [2]	overall response rate ([1]; c-Kit D816V positive SM patients)	response of mast cells carrying the D816V c-Kit mutation [3]
Nc1nc(Cl)nc2c1ncn2[C@H]1C[C@H](O)[C@@H](CO)O1 [Cladribine]	up to 50%	37%	55%	56%				
NC(=O)NO [hydroxyurea]		0%	19%	0%				
Cc1ccc(NC(=O)c2ccc(CN3CCN(C)CC3)cc2)cc1Nc1nccc(-c2cccnc2)n1 [imatinib]		9%	18%	14%	5%	6/11	17%	resistant
interferon-alpha		18%	53%	60%				
